# Patent US6172066A, “Dihydropyrimidines and uses thereof” (Synaptic Pharmaceutical Corporation, priority 1997, dated 2001)
# Counter-ions that a name gives are not always drawn.
# Assays:
# [1] = biological target: T1, α1D Human Adrenergic Receptor (Homo sapiens, UniProt P25100); assay: Radioligand binding, [3H]prazosin displacement, cloned human α1D receptor (LM(tk-) cell membranes); details: [3H]prazosin 0.5 nM, 37° C., 20 min; for Ki: read-out: hα1D pKi (converted)
# T1 construct: The entire coding region of α1D (1719 bp); expressed in transfected cells
# T1 sequence (P25100 1-572): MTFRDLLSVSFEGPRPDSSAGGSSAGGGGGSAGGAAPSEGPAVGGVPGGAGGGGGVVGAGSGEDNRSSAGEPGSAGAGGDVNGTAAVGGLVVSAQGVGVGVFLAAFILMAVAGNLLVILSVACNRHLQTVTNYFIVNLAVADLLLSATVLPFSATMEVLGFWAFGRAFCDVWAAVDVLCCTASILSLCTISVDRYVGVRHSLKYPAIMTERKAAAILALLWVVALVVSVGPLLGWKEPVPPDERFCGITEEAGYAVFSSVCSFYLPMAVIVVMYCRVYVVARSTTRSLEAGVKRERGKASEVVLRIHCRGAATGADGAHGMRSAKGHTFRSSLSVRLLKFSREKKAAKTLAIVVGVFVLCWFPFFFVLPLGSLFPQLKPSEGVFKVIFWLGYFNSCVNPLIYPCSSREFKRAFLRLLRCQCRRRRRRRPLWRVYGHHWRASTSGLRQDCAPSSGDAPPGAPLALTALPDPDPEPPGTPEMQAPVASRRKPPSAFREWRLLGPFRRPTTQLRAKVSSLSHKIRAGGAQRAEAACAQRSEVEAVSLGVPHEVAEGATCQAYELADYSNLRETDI
# Protocol: (§1) The activity of compounds at the different human receptors was determined in vitro using cultured cell lines that selectively express the receptor of interest. These cell lines were prepared by transfecting the cloned cDNA or cloned genomic DNA or constructs containing both genomic DNA and cDNA encoding the human α-adrenergic receptors as follows:
# The entire coding region of α1D (1719 bp), including 150 base pairs of 5' untranslated sequence (5' UT) and 300 bp of 3' untranslated sequence (3' UT), was cloned into the BamHI and ClaI sites of the polylinker-modified eukaryotic expression vector pCEXV-3, called EXJ.HR. The construct involved the ligation of partial overlapping human lymphocyte genomic and hippocampal cDNA clones: 5' sequence were contained on a 1.2 kb SmaI-XhoI genomic fragment (the vector-derived BamHI site was used for subcloning instead of the internal insert-derived SmaI site) and 3' sequences were contained on an 1.3 kb XhoI-ClaI cDNA fragment (the ClaI site was from the vector polylinker). Stable cell lines were obtained by cotransfection with the plasmid α1A/EXJ (expression vector containing the α1A receptor gene (old nomenclature)) and the plasmid pGCcos3neo (plasmid containing the aminoglycoside transferase gene) into LM(tk-) cells using calcium phosphate technique. The cells were grown, in a controlled environment (37° C., 5% CO2), as monolayers in Dulbecco's modified Eagle's Medium (GIBCO, Grand Island, N.Y.) containing 25 mM glucose and supplemented with 10% bovine calf serum, 100 units/ml penicillin g, and 100 μg/ml streptomycin sulfate. Stable clones were then selected for resistance to the antibiotic G-418 (1 mg/ml), and membranes were harvested and assayed for their ability to bind [^3 H]prazosin as described below (see "Radioligand Binding assays").
# The cell line expressing the human α1D receptor used herein was designated L-α1A (old nomenclature) and was deposited with the American Type Culture Collection, 12301 Parklawn Drive, Rockville, Md. 20852, U.S.A. under the provisions of the Budapest Treaty for the International Recognition of the Deposit of Microorganisms for the Purposes of Patent Procedure. The cell line expressing the human α1D receptor, was accorded ATCC Accession No. CRL 11138, and was deposited on Sep. 25, 1992.
# (§2) Transfected cells from culture flasks were scraped into 5 ml of 5 mM Tris-HCl, 5 mM EDTA, pH 7.5, and lysed by sonication. The cell lysates were centrifuged at 1000 rpm for 5 min at 4° C., and the supernatant was centrifuged at 30,000×g for 20 min at 4° C. The pellet was suspended in 50 mM Tris-HCl, 1 mM MgCl2, and 0.1% ascorbic acid at pH 7.5. Binding of the α1 antagonist [^3 H]prazosin (0.5 nM, specific activity 76.2 Ci/mmol) to membrane preparations of LM(tk-) cells was done in a final volume of 0.25 ml and incubated at 37° C. for 20 min. Nonspecific binding was determined in the presence of 10 μM phentolamine. The reaction was stopped by filtration through GF/B filters using a cell harvester. Inhibition experiments, routinely consisting of 7 concentrations of the tested compounds, were analyzed using a non-linear regression curve-fitting computer program to obtain Ki values.
# [2] = biological target: T2, α1B Human Adrenergic Receptor (Homo sapiens, UniProt P35368); assay: Radioligand binding, [3H]prazosin displacement, cloned human α1B receptor (LM(tk-) cell membranes); details: [3H]prazosin 0.5 nM, 37° C., 20 min; for Ki: read-out: hα1B pKi (converted)
# T2 construct: The entire coding region of a1B (1563 bp); expressed in transfected cells
# T2 sequence (P35368 1-520): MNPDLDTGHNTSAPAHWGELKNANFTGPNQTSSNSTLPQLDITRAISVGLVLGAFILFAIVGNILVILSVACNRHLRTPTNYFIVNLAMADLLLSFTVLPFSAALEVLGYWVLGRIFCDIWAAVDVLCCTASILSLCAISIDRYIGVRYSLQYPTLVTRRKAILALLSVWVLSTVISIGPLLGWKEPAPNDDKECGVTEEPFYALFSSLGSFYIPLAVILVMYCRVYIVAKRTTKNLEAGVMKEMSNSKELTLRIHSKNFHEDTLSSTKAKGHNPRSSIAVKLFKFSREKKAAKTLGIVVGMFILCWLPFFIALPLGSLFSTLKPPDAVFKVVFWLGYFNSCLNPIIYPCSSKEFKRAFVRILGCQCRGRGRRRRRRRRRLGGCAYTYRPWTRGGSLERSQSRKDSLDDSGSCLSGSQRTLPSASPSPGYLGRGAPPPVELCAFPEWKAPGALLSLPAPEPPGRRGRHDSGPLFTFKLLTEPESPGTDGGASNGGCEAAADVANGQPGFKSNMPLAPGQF
# Protocol: as §1
# The entire coding region of a1B (1563 bp), including 200 base pairs and 5' untranslated sequence (5' UT) and 600 bp of 3' untranslated sequence (3' UT), was cloned into the EcoRI site of pCEXV-3 eukaryotic expression vector. The construct involved ligating the full-length containing EcoRI brainstem cDNA fragment from λ ZapII into the expression vector. Stable cell lines were selected as described above. The cell line used herein was designated L-α1B and was deposited with the American Type Culture Collection, 12301 Parklawn Drive, Rockville, Md. 20852, U.S.A. under the provisions of the Budapest Treaty for the International Recognition of the Deposit of Microorganisms for the Purposes of Patent Procedure. The cell line L-α1B was accorded ATCC Accession No. CRL 11139, on Sep. 25, 1992.
# as §2
Compound,Ki [1] [nM],Ki [2] [nM],hα1D pKi [1],hα1B pKi [2]
"CCC1=C(C(N)=O)C(c2ccc(F)cc2F)N(C(=O)NCCN[C@H]2CC[C@](C#N)(c3ccccc3)CC2)C(=O)N1 (single isomer, unassigned; (+)) [Example 3, (+)-cis-5-Carboxamido-6-(2,4-difluorophenyl)-1-{N-[2-(4-cyano-4-phenyl-cyclohexylamino)ethyl]}carboxamido-4-ethyl-2-oxo-1,2,3,6-tetrahydropyrimidine hydrochloride]",240,100,–,–
"COCC1=C(C(=O)OC)C(c2ccc(F)c(F)c2)N(C(=O)NCCN[C@H]2CC[C@](C#N)(c3ccccc3)CC2)C(=O)N1 (single isomer, unassigned; (+)) [Example 4, (+)-cis-6-(3,4-Difluorophenyl)-1-{N-[2-(4-cyano-4-phenyl-cyclohexylamino)ethyl]}carboxamido-5-methoxycarbonyl-4-methoxymethyl-2-oxo-1,2,3,6-tetrahydropyrimidine hydrochloride]",100,18.6,–,–
"COCC1=C(C(=O)OC)C(c2ccc(F)c(F)c2)N(C(=O)NCCN[C@H]2CC[C@@](C#N)(c3ccccc3)CC2)C(=O)N1 (single isomer, unassigned; (+)) [Example 5, (+)-trans-6-(3,4-Difluorophenyl)-1-{N-[2-(4-cyano-4-phenyl-cyclohexylamino)ethyl]}carboxamido-5-methoxycarbonyl-4-methoxymethyl-2-oxo-1,2,3,6-tetrahydropyrimidine hydrochloride]",123,26.9,–,–
"cis-6-(3,4,5-Trifluorophenyl)-1-{N-[2-(4-cyano-4-phenyl-cyclohexylamino)ethyl]}-carboxamido-5-acetyl-4-methoxymethyl-2-oxo-1,2,3,6-tetrahydropyrimidine hydrochloride [Example 2]",–,–,7.05,7.76

# More lines, now with the values ahead:
Ki [1] [nM],Ki [2] [nM],hα1D pKi [1],hα1B pKi [2],Compound
3890,1120,–,–,"COCC1=C(C(=O)OC)C(c2ccc(F)c(F)c2)N(C(=O)NCCN[C@H]2CC[C@H](c3ccccn3)CC2)C(=O)N1 (single isomer, unassigned; (+)) [Example 7, (+)-trans-6-(3,4-Difluorophenyl)-1-{N-[2-(4-(2-pyridyl)-cyclohexylamino)ethyl]}carboxamido-5-methoxycarbonyl-4-methoxymethyl-2-oxo-1,2,3,6-tetrahydropyrimidine hydrochloride]"
126,27.5,–,–,"COCC1=C(C(=O)OC)C(c2ccc(F)c(F)c2)N(C(=O)NCCN[C@H]2CC[C@](C(=O)OC)(c3ccccc3)CC2)C(=O)N1 (single isomer, unassigned; (+)) [Example 11, (+)-cis-6-(3,4-Difluorophenyl)-1-{N-[2-(4-methoxycarbonyl-4-phenyl-cyclohexylamino)ethyl]}carboxamido-5-methoxycarbonyl-4-methoxymethyl-2-oxo-1,2,3,6-tetrahydropyrimidine hydrochloride]"
51.3,13.5,–,–,"COC(=O)C1=C(C)NC(=O)N(C(=O)NCCN[C@H]2CC[C@](C#N)(c3ccccc3F)CC2)C1c1ccc(F)c(F)c1 (single isomer, unassigned; (+)) [Example 13, (+)-cis-6-(3,4-Difluorophenyl)-1-{N-[2-(4-cyano-4-(2-fluorophenyl)-cyclohexylamino)ethyl]}carboxamido-5-methoxycarbonyl-4-methyl-2-oxo-1,2,3,6-tetrahydropyrimidine hydrochloride]"
1100,282,–,–,"COCC1=C(C(=O)OC)C(c2ccc(F)c(F)c2)N(C(=O)NCCN[C@H]2CC[C@](C#N)(c3ccccn3)CC2)C(=O)N1 (single isomer, unassigned; (+)) [Example 14, (+)-cis-6-(3,4-Difluorophenyl)-1-{N-[2-(4-cyano-4-(2-pyridyl)-cyclohexylamino)ethyl]}carboxamido-5-methoxycarbonyl-4-methoxymethyl-2-oxo-1,2,3,6-tetrahydropyrimidine hydrochloride]"
